Results reported in ChEMBL document CHEMBL2385061, “Synthesis and carbonic anhydrase inhibitory properties of sulfamides structurally related to dopamine” (Bioorg Med Chem, 2013).
pKi: −log10 of the molar value.

Assays:
Carbonic anhydrase 9 = Carbonic anhydrase 9 (Homo sapiens, UniProt Q16790); test: Inhibition of human carbonic anhydrase-9 preincubated for 15 mins by stopped-flow CO2 hydration assay
[1] = target: Carbonic anhydrase 5A, mitochondrial (Homo sapiens, UniProt P35218); test: Inhibition of human carbonic anhydrase-5A preincubated for 15 mins by stopped-flow CO2 hydration assay
Carbonic anhydrase 5A, mitochondrial, sequence (P35218 whole entry): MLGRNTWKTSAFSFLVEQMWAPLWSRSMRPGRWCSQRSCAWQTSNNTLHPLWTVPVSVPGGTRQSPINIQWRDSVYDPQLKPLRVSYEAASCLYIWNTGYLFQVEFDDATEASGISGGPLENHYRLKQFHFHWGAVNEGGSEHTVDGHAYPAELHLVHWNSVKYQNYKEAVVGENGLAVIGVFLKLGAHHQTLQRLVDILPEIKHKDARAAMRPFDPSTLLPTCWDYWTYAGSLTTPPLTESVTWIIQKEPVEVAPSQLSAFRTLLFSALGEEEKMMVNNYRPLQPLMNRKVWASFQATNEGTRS

COc1ccccc1CCNS(N)(=O)=O
pKi (Carbonic anhydrase 9): 7.39
pKi [1]: 5.48

COc1ccc(CCNS(N)(=O)=O)cc1
pKi (Carbonic anhydrase 9): 6.42
pKi [1]: 5.49

COc1cccc(CCNS(N)(=O)=O)c1OC
pKi (Carbonic anhydrase 9): < 4.30
pKi [1]: < 4.30

COc1ccc(CCNS(N)(=O)=O)cc1OC
pKi (Carbonic anhydrase 9): 7.04
pKi [1]: 5.64

COc1cc(CCNS(N)(=O)=O)cc(OC)c1OC
pKi (Carbonic anhydrase 9): 6.66
pKi [1]: < 4.30
